These results are taken from patent US5605703A, “Liposomes encapsulating doxorubicin” (priority 1993, dated 1997).

The nature of data set [1]: Survival of healthy BALB/C rats after i.v. administration. The note with it: rat, in vivo, iv, 16 mg/kg, during the second week. Here is the method:
(§1) As in Example 1, VET liposomes of composition PL:PG:CHOL:DXR (50:50:50:15) and chroman 6 (7.5 mg) were prepared.
Inoculation intravenously. Healthy BALB/C rats were treated intravenously with the preparation of L-DXR described and the survival curves compared (FIG. 5) with the administration of free drug of the same dose, 16 mg/kg. In the experiment there was incorporated as a control a preparation of liposomes without drug, of identical characteristics and at the same lipidic concentration which would correspond to the liposomes with DXR.

Data set [2] in a line: Survival of healthy BALB/C rats after i.p. administration. The note with it: rat, in vivo, ip, 18 mg/kg, during the second week. Here is the method:
as §1
Inoculation by intraperitoneal route. Healthy BALB/C rats were treated intraperitoneally with said preparation, and the survival curves compared (FIG. 4) with the administration of free drug at the same dose, 18 mg/kg. In the experiment there was incorporated as a control a preparation of liposomes without drug, of identical characteristics and at the same lipidic concentration which would correspond to the liposomes with DXR.

For a further data set, the system named is animals. The note with it: literature; cited from earlier work.
Data set [3] concerns lipid peroxidation in rat liver microsomes (Fe-ascorbate). Briefly: Inhibition of Fe-ascorbate stimulated (chemical) lipid peroxidation in rat liver microsomes, TBARS test. The note with it: for percentage of inhibition of TBARS production, Fe-ascorbate: at a 0.5 mM concentration; for inhibition of lipid peroxidation, Fe-ascorbate (in words) / IC50: rat liver microsomes; for effect with Fe-ascorbate compared with the tests depending on NADPH: Fe-ascorbate vs. NADPH; for IC50: FeSO4, ascorbic acid 0.5 mM, 30 min. at 37° C., read-out: IC50 TBARS production, Fe-ascorbate. Type of data set: biochemical, Sprague-Dawley male rat. On the procedure:
(§2) Incubations. Suspension of Sprague-Dawley male rat liver microsomes in Krebs-Ringer (KRP) phosphates buffer, were prepared in accordance with the method of Fraga et al.: Free Radical Biol. Med. (1988) 4, 155-161. For the experiences of lipidic peroxidation induced enzymatically, microsomal protein (2 mg) in 1 ml of KRP buffer was incubated for one hour at 37° C. in the presence of 0.1 mM NADPH and 2 μl of DMSO containing the compound to be evaluated at the appropriate concentration. In the experiments where the incubations were prolonged up to three hours, every hour 0.1 ml of NADPH 2 mM was added to the incubation medium. For the experiments of lipid peroxidation induced chemically, 2 mg. of microsomal protein in 1 ml of KRP buffer were incubated for 30 min. at 37° C. in the presence of FeSO4 50/μM, ascorbic acid 0.5 mM and 2 μl of DMSO containing the compound to be evaluated at the appropriate concentration. In all cases, the incubations were arrested by addition of 0.2 ml of BHT at 4%.
(§3) TBARS test. […]. (1988) 4, 155-161 (herein incorporated by reference). Briefly, 0.5 ml of dodecyl sodium sulphate at 3% was added to proportions of 0.5 ml of the microsomal incubations. After mixing them, 2 ml of HC1 0.1 N, 0.3 ml of phosphotungstic acid and 1 ml of 2-thiobarbituric acid were added. The mixture was kept 30 min. at 100° C., and the TBARS were extracted with 3 ml of 1-butanol. After centrifugation, the fluorescence of the butanol phase was determined exciting at 515 nm and reading at 555 nm. The values obtained were expressed as nanomoles of TBARS (malondialdehyde equivalents). The standards of malondialdehyde were prepared from 1,1,3,3-tetramethoxypropane. The experiments were performed in triplicate. The values of […] were determined by representation of the percentage of inhibition vs. log [I], using at least five different concentrations. The values of the percentages of inhibition were referred to the determination carried out in presence of DMSO (2 μl).
(§4) In Table I the results of the inhibition of the lipidic peroxidation shown by several 2.2-dimethylchromans and chromans, fluorated or not, in incubations of rat liver microsomes induced by NADPH or stimulated by Fe-ascorbate, are shown, expressed as values of […] for the inhibition of the production of TBARS.

Data set [4] has as its system lipid peroxidation in rat liver microsomes (NADPH). Briefly: Inhibition of NADPH-induced (enzymatic) lipid peroxidation in rat liver microsomes, TBARS test. The note with it: for IC50 / inhibition of lipid peroxidation, NADPH (in words): rat liver microsomes; for IC50: 0.1 mM NADPH, one hour at 37° C., read-out: IC50 TBARS production, NADPH. Type of data set: biochemical, Sprague-Dawley male rat. Here is the method:
as §2, §3, §4

Data set [5] in a line: Encapsulation of DXR in liposomes (Sephadex G-50M). Type of data set: physicochemical. The note with it: VET liposomes PL:PG:CHOL:DXR (50:50:50:15), anti-oxidant varied. On the procedure: A chloroform solution was prepared containing the selected lipids (table II) and 7.5 mg. of the chroman 6 in a round-bottomed flask. Afterward proceeding to the elimination of the organic solvent by means of roto-evaporation, additionally the traces of solvent were eliminated by passage of N2 or by lyophilization. The lipidic film thus obtained was hydrated, with 3 ml of NaCl solution at 0.9% containing DXR, by agitation in a vibromixer at intervals of 30 sec., followed by resting in a bath maintained at 60° C. for the same amount of time and an effective agitation up to 10 min. Thus a liposomal dispersion was obtained containing preferably multilamelar vesicles (MLVs). The liposomal solution was sonicated by ultrasonic irradiation by means of a titanium probe until a change in the turbidity was observed. The protocol of sonication was carried out in relays of 2 min. of sonication and one minute resting under atmosphere of N2 in an ice water bath. In order to eliminate the particles of titanium produced during the sonication, it was centrifuged for 20 min. at 3000 rpm. The liposomal suspension thus obtained contained small unilamelar liposomes (SUVs).
Alternatively, the suspension of multilamelar liposomes obtained as described was submitted to extrusion through polycarbonate filters of 0.4 and 0.2 μm in diameter of pore subsequently, obtaining liposomes designated VET.
The determination of the percentage of encapsulation of DXR was done by chromatographic separation of a portion of the liposomal suspension, by means of Sephadex G-50M utilizing NaCl 0.9% as eluent.
Proceeding in a manner analogous to that described in EXAMPLE 2 to obtain VET liposomes utilizing a ratio by weight of PL:PG:CHOL:DXR of 50:50:50:15 and varying the anti-oxidant agent employed. The results obtained show (Table III) that no appreciable differences exist in the percentages of encapsulation when different inhibitors of the lipidic peroxidation were utilized.

The test system of another data set is rat liver microsomes. In kind it is in vitro ADME, Sprague-Dawley male rat.
Data set [6] has as its system lipid peroxidation in rat liver microsomes (NADPH). Description: Persistence of the inhibition of lipid peroxidation over three hours in rat liver microsomes with NADPH. The note with it: compounds 5, 6, 8, 9 at 15, 1, 6, 5 μM. Type of data set: biochemical, Sprague-Dawley male rat. On the procedure: FIG. 1 illustrates the formulas of the chromenes (1-4), chromans (5-9) and compound of reference, BHT, (10) studied as inhibitors of the lipidic peroxidation. […] The values shown are the average +/-SD of sextuplicate tieterminations that were performed. The difference between consecutive hours are marked by asterisks: * P<0.001, ** P<0.005.
as §2
TBARS test. When the incubations were completed, the lipid peroxidation was evaluated by means of the production of substances which react with thiobarbituric acid (TBARS) as Fraga et al described.: Free Radical Biol. Meal. (1988) 4, 155-161 (herein incorporated by reference). Briefly, 0.5 ml of dodecyl sodium sulphate at 3% was added to proportions of 0.5 ml of the microsomal incubations. […] After centrifugation, the fluorescence of the butanol phase was determined exciting at 515 nm and reading at 555 nm. The values obtained were expressed as nanomoles of TBARS (malondialdehyde equivalents). […] The values of […] were determined by representation of the percentage of inhibition vs. log [I], using at least five different concentrations. […]

Each structure is given as a SMILES string. “Also recorded” adds a separate entry of the source.

On to `COc1cccc2c1C(=O)c1c(O)c3c(c(O)c1C2=O)C[C@@](O)(C(=O)CO)C[C@@H]3O[C@H]1C[C@H](N)[C@H](O)[C@H](C)O1` [F-DXR], for which the mortality in data set [1] and in data set [2] was 100% in each case. In the data set with animals, the “toxicity in animals (in words)” value is listed as “cardiomyopathy”.

Consider `COc1cc2c(cc1OC)OC(C)(C)C=C2` [compound 1], for which, in data set [3], the “percentage of inhibition of TBARS production, Fe-ascorbate” value (from here on “percentage of inhibition … Fe-ascorbate”) was found to be 35% and the “inhibition of lipid peroxidation, Fe-ascorbate (in words)” value (from here on “inhibition … Fe-ascorbate (in words)”) was “inactive”. The 50% inhibitory concentration (IC50) in data set [4] stood at 11.4 µM. The “% encapsulation (Table III)” value in data set [5] came out at 89%.

As to `COc1cc2c(cc1O)C=CC(C)(C)O2` [compound 2], in data set [3], the “effect with Fe-ascorbate compared with the tests depending on NADPH” value was “six times smaller”; the “inhibition … Fe-ascorbate (in words)” value is on record as “potent inhibiting effect”; the IC50 is 3.8 µM. In addition, the IC50 in data set [4] stood at 1.4 µM. The “% encapsulation (Table III)” value in data set [5] stood at 85%.

Take `CC1(C)C=Cc2cc(O)c(OCC(F)(F)F)cc2O1` [compound 4]: the metabolite detected result with rat liver microsomes was “detection as a metabolite in the incubations with NADPH”. Further, the half-inhibitory concentration (IC50) is 6 µM in data set [3] and 3.7 µM in data set [4]. Further, in data set [4], the “inhibition of lipid peroxidation, NADPH (in words)” value is reported as “the greatest inhibiting activity”. Besides, the “% encapsulation (Table III)” value in data set [5] amounted to 84%.

Regarding `COc1cc2c(cc1OC)OC(C)(C)CC2` [compound 5], the “persistence of the inhibiting activity” value in data set [6] was “remains constant; also recorded: anti-oxidant efficiency more metabolic-dependent”. For the same molecule, in data set [3], the “percentage of inhibition … Fe-ascorbate” value is 17% and the “inhibition … Fe-ascorbate (in words)” value is “inactive”. Moreover, the IC50 in data set [4] was found to be 15 µM. Moreover, the “% encapsulation (Table III)” value in data set [5] is 86%.

Turning to `COc1cc2c(cc1O)CCC(C)(C)O2` [compound 6], in data set [3], the “inhibiting activity compared with another compound, Fe-ascorbate” value is reported as “superior to that of the BHT; also recorded: an order of magnitude greater than that of the compound 7”; the “effect with Fe-ascorbate compared with the tests depending on NADPH” value was “six times smaller”; the “inhibition … Fe-ascorbate (in words)” value was “potent inhibiting effect; also recorded: the greatest inhibiting power”; the concentration for half-maximal inhibition (IC50) was 1.9 µM. In data set [4], the “inhibiting activity compared with another compound, NADPH” value is given as “an order of magnitude greater than that of the compound 7” and the IC50 was 0.3 µM. In addition, the “% encapsulation (Table III)” value in data set [5] came to 87%.

Take `COc1cc2c(cc1O)OC(C)(C)CC2` [compound 7]: in data set [3], the “effect with Fe-ascorbate compared with the tests depending on NADPH” value was “six times smaller”; the “inhibition … Fe-ascorbate (in words)” value was “potent inhibiting effect”; the concentration for half-maximal inhibition (IC50) is 19 µM. Further, the half-inhibitory concentration (IC50) in data set [4] was found to be 3.4 µM. Also, in data set [5], the “% encapsulation (Table III)” value is 88%.

As for `COc1cc2c(cc1OCC(F)(F)F)OC(C)(C)CC2` [compound 8], in data set [6], the “persistence of the inhibiting activity” value is given as “slightly higher during the second hour of incubation; also recorded: significant drop in the inhibiting activity during the third hour; also recorded: not significant when it is compared with the percentage of inhibition determined for the first hour of incubation (P>0.005); also recorded: anti-oxidant efficiency more metabolic-dependent”. In data set [3], the “percentage of inhibition … Fe-ascorbate” value is recorded as 5% and the “inhibition … Fe-ascorbate (in words)” value is “does not present inhibiting activity per se”. In data set [4], the “inhibiting activity compared with another compound, NADPH” value is listed as “nine times greater than that corresponding to chromene 3” and the 50% inhibitory concentration (IC50) stood at 6 µM. Further, the “% encapsulation (Table III)” value in data set [5] came to 90%.

Turning to `CC1(C)CCc2cc(O)c(OCC(F)(F)F)cc2O1` [compound 9], the “persistence of the inhibiting activity” value in data set [6] is “decreases during the second and the third hour of incubation; also recorded: less pronounced than that obtained for the compound 6; also recorded: more persistent intrinsic activity”. For the same molecule, in data set [3], the “inhibiting activity compared with another compound, Fe-ascorbate” value is recorded as “slightly inferior to that shown by hydroxychroman 6” and the IC50 amounted to 5.3 µM. In addition, in data set [4], the IC50 is 3.9 µM and the “inhibition of lipid peroxidation, NADPH (in words)” value is recorded as “the highest inhibiting activity of the chroman fluorates tested”. Further, in data set [5], the “% encapsulation (Table III)” value is reported as 83%.

Take `Cc1cc(C(C)(C)C)c(O)c(C(C)(C)C)c1` [compound 10, reference compound]: in data set [3], the “effect with Fe-ascorbate compared with the tests depending on NADPH” value is reported as “A similar relation” and the IC50 amounted to 2.7 µM. The half-inhibitory concentration (IC50) in data set [4] worked out at 0.8 µM.
